According to the NIST ThermoML archive (doi:10.1021/je060355j):
Numbers after ± are expanded uncertainties.

What was measured:
[1] = Liquid; for mass density: 101.32 kPa
[2] = refractive index (Na D-line) (dimensionless); conditions: 101.33 kPa, Liquid
[3] = xn = mol fraction of the nth substance listed; conditions: 101.32 kPa, Liquid
[4] = excess molar enthalpy (molar enthalpy of mixing); xn = mol fraction of the nth substance listed; conditions: 291.15 K, 101.32 kPa, Liquid

Structure (SMILES): CCCCOC=O [butyl methanoate]
- mass density ([1]; 291.15 K): 896 ± 2.4 kg/m3
- mass density ([1]; 298.15 K): 888.66 ± 2.4 kg/m3
- mass density ([1]; 308.15 K): 878.24 ± 2.4 kg/m3
- mass density ([1]; 318.15 K): 867.21 ± 2.4 kg/m3
- vapor or sublimation pressure ([1]; 380.13 K): 101.32 ± 1.1 kPa
- refractive index ([2]; 291.15 K): 1.3904 ± 0.0011
- refractive index ([2]; 298.15 K): 1.3872 ± 0.0011
- refractive index ([2]; 318.15 K): 1.3776 ± 0.0011

Structure (SMILES): CCOC=O [ethyl methanoate]
- mass density ([1]; 291.15 K): 924.7 ± 2.3 kg/m3
- mass density ([1]; 298.15 K): 915.16 ± 2.3 kg/m3
- mass density ([1]; 308.15 K): 902.07 ± 2.3 kg/m3
- mass density ([1]; 318.15 K): 888.42 ± 2.4 kg/m3
- vapor or sublimation pressure ([1]; 327.33 K): 101.32 ± 1 kPa
- refractive index ([2]; 291.15 K): 1.3614 ± 0.0011
- refractive index ([2]; 298.15 K): 1.358 ± 0.0011
- refractive index ([2]; 318.15 K): 1.3474 ± 0.0011

Structure (SMILES): CCCCCC [hexane]
- mass density ([1]; 291.15 K): 661.2 ± 2 kg/m3
- mass density ([1]; 298.15 K): 654.89 ± 2.1 kg/m3
- mass density ([1]; 308.15 K): 646.07 ± 2.1 kg/m3
- mass density ([1]; 318.15 K): 636.43 ± 2.2 kg/m3
- vapor or sublimation pressure ([1]; 341.76 K): 101.32 ± 1 kPa
- refractive index ([2]; 291.15 K): 1.3765 ± 0.001
- refractive index ([2]; 298.15 K): 1.372 ± 0.001
- refractive index ([2]; 318.15 K): 1.3618 ± 0.001

Structure (SMILES): CCCCCC [hexane] + CCCCOC=O
- mass density ([3]; 291.15 K, x2 = 0): 661.2 ± 2 kg/m3
- mass density ([3]; 298.15 K, x2 = 0): 654.89 ± 2.1 kg/m3
- mass density ([3]; 308.15 K, x2 = 0): 646.07 ± 2.1 kg/m3
- mass density ([3]; 318.15 K, x2 = 0): 636.43 ± 2.2 kg/m3

Structure (SMILES): CCCCCC [hexane] + CCCOC=O
- mass density ([3]; 291.15 K, x2 = 0): 661.2 ± 2 kg/m3
- mass density ([3]; 298.15 K, x2 = 0): 654.89 ± 2.1 kg/m3
- mass density ([3]; 308.15 K, x2 = 0): 646.07 ± 2.1 kg/m3
- mass density ([3]; 318.15 K, x2 = 0): 636.43 ± 2.2 kg/m3

Structure (SMILES): CCCCCC [hexane] + CCOC=O
- mass density ([3]; 291.15 K, x2 = 0): 661.2 ± 2 kg/m3
- mass density ([3]; 298.15 K, x2 = 0): 654.89 ± 2.1 kg/m3
- mass density ([3]; 308.15 K, x2 = 0): 646.07 ± 2.1 kg/m3
- mass density ([3]; 318.15 K, x2 = 0): 636.43 ± 2.2 kg/m3

Structure (SMILES): CCCCCC [hexane] + COC=O
- mass density ([3]; 291.15 K, x2 = 0): 661.2 ± 2 kg/m3
- mass density ([3]; 298.15 K, x2 = 0): 654.89 ± 2.1 kg/m3

Structure (SMILES): COC=O [methyl methanoate]
- mass density ([1]; 291.15 K): 976.9 ± 0.67 kg/m3
- mass density ([1]; 298.15 K): 966.54 ± 0.72 kg/m3
- vapor or sublimation pressure ([1]; 304.7 K): 101.32 ± 1 kPa
- refractive index ([2]; 291.15 K): 1.3452 ± 0.001
- refractive index ([2]; 298.15 K): 1.3415 ± 0.001

Structure (SMILES): COC=O [methyl methanoate] + CCCCCC
- excess molar enthalpy ([4]; x1 = 0.1408): 0.253 ± 0.00454 kcal/mol
- excess molar enthalpy ([4]; x1 = 0.252): 0.389 ± 0.00645 kcal/mol
- excess molar enthalpy ([4]; x1 = 0.3379): 0.462 ± 0.00765 kcal/mol
- excess molar enthalpy ([4]; x1 = 0.4008): 0.492 ± 0.00813 kcal/mol
- excess molar enthalpy ([4]; x1 = 0.4618): 0.504 ± 0.00813 kcal/mol
- excess molar enthalpy ([4]; x1 = 0.5094): 0.502 ± 0.00813 kcal/mol
- excess molar enthalpy ([4]; x1 = 0.5501): 0.493 ± 0.00813 kcal/mol
- excess molar enthalpy ([4]; x1 = 0.5862): 0.481 ± 0.00789 kcal/mol
- excess molar enthalpy ([4]; x1 = 0.6157): 0.462 ± 0.00765 kcal/mol
- excess molar enthalpy ([4]; x1 = 0.6568): 0.439 ± 0.00717 kcal/mol
- excess molar enthalpy ([4]; x1 = 0.7033): 0.41 ± 0.00669 kcal/mol
- excess molar enthalpy ([4]; x1 = 0.7517): 0.37 ± 0.00621 kcal/mol
- excess molar enthalpy ([4]; x1 = 0.7971): 0.33 ± 0.0055 kcal/mol
- excess molar enthalpy ([4]; x1 = 0.845): 0.281 ± 0.00478 kcal/mol
- excess molar enthalpy ([4]; x1 = 0.8923): 0.219 ± 0.00406 kcal/mol
- excess molar enthalpy ([4]; x1 = 0.9292): 0.153 ± 0.00335 kcal/mol
- excess molar enthalpy ([4]; x1 = 0.9665): 0.0896 ± 0.00239 kcal/mol
- mass density ([3]; 291.15 K, x1 = 0.019): 663 ± 2 kg/m3
- mass density ([3]; 291.15 K, x1 = 0.0499): 666.3 ± 2 kg/m3
- mass density ([3]; 291.15 K, x1 = 0.0863): 670.6 ± 2 kg/m3
- mass density ([3]; 291.15 K, x1 = 0.1013): 672.6 ± 2 kg/m3
- mass density ([3]; 291.15 K, x1 = 0.1209): 675.3 ± 2 kg/m3
- mass density ([3]; 291.15 K, x1 = 0.2033): 687.1 ± 1.9 kg/m3
- mass density ([3]; 291.15 K, x1 = 0.2986): 702.6 ± 1.9 kg/m3
- mass density ([3]; 291.15 K, x1 = 0.3828): 718.9 ± 1.8 kg/m3
- mass density ([3]; 291.15 K, x1 = 0.4841): 742.3 ± 1.7 kg/m3
- mass density ([3]; 291.15 K, x1 = 0.5462): 759.1 ± 1.6 kg/m3
- mass density ([3]; 291.15 K, x1 = 0.6061): 777.4 ± 1.6 kg/m3
- mass density ([3]; 291.15 K, x1 = 0.6987): 810.1 ± 1.4 kg/m3
- mass density ([3]; 291.15 K, x1 = 0.7445): 829.1 ± 1.4 kg/m3
- mass density ([3]; 291.15 K, x1 = 0.7956): 851.5 ± 1.3 kg/m3
- mass density ([3]; 291.15 K, x1 = 0.8392): 872.6 ± 1.2 kg/m3
- mass density ([3]; 291.15 K, x1 = 0.903): 908.4 ± 1.1 kg/m3
- mass density ([3]; 291.15 K, x1 = 0.9539): 939.9 ± 1.1 kg/m3
- mass density ([3]; 291.15 K, x1 = 1): 976.9 ± 0.67 kg/m3
- mass density ([3]; 298.15 K, x1 = 0.0376): 659.63 ± 2.1 kg/m3
- mass density ([3]; 298.15 K, x1 = 0.0816): 664.26 ± 2 kg/m3
- mass density ([3]; 298.15 K, x1 = 0.1327): 670.55 ± 2 kg/m3
- mass density ([3]; 298.15 K, x1 = 0.1642): 674.8 ± 2 kg/m3
- mass density ([3]; 298.15 K, x1 = 0.2352): 685.32 ± 1.9 kg/m3
- mass density ([3]; 298.15 K, x1 = 0.2936): 695.29 ± 1.9 kg/m3
- mass density ([3]; 298.15 K, x1 = 0.3903): 714.41 ± 1.8 kg/m3
- mass density ([3]; 298.15 K, x1 = 0.4987): 740.05 ± 1.7 kg/m3
- mass density ([3]; 298.15 K, x1 = 0.5979): 768.9 ± 1.6 kg/m3
- mass density ([3]; 298.15 K, x1 = 0.7062): 806.5 ± 1.4 kg/m3
- mass density ([3]; 298.15 K, x1 = 0.7433): 821.74 ± 1.4 kg/m3
- mass density ([3]; 298.15 K, x1 = 0.7972): 845.31 ± 1.3 kg/m3
- mass density ([3]; 298.15 K, x1 = 0.8497): 871.94 ± 1.2 kg/m3
- mass density ([3]; 298.15 K, x1 = 0.905): 902.05 ± 1.2 kg/m3
- mass density ([3]; 298.15 K, x1 = 0.9582): 936.28 ± 1.1 kg/m3
- mass density ([3]; 298.15 K, x1 = 1): 966.54 ± 0.72 kg/m3

Structure (SMILES): CCCOC=O [propyl methanoate]
- mass density ([1]; 291.15 K): 907.8 ± 2.3 kg/m3
- mass density ([1]; 298.15 K): 899.08 ± 2.3 kg/m3
- mass density ([1]; 308.15 K): 888.36 ± 2.4 kg/m3
- mass density ([1]; 318.15 K): 875.32 ± 2.4 kg/m3
- vapor or sublimation pressure ([1]; 353.92 K): 101.32 ± 1 kPa
- refractive index ([2]; 291.15 K): 1.3778 ± 0.0011
- refractive index ([2]; 298.15 K): 1.375 ± 0.0011
- refractive index ([2]; 318.15 K): 1.365 ± 0.0011
